The text below walks through data of BindingDB's records for doi:10.1021/jm00376a004 (1984).

The assay is described as follows: Compound was evaluated for average apparent binding constant (Kd ) using Scatchard analysis to dTMP synthetase enzyme from chick embryo.

Take `O=c1nc(NO)ccn1[C@H]1C[C@H](O)[C@@H](COP(=O)(O)O)O1` [Phosphoric acid mono-[3-hydroxy-5-(4-hydroxyamino-2-oxo-2H-pyrimidin-1-yl)-tetrahydro-furan-2-ylmethyl] ester]: the Kd stood at 1000 nM.
